Source: US12509430B2, “Inhibitors of nicotinamide N-methyltransferase, compositions and uses thereof” (President and Fellows of Harvard College, priority 2020, dated 2025)
Read-outs that look alike come from different tables or passages of the source. Values belong to the molecule of their own block, whether it stands above or below them.

Assays:
recombinant human NNMT = molecular target: T1, recombinant human NNMT (Homo sapiens, UniProt P40261); test: in vitro NNMT enzyme inhibition assay (Promega MTase-Glo Methyltransferase Assay); format: biochemical
T1 sequence (P40261 1-264): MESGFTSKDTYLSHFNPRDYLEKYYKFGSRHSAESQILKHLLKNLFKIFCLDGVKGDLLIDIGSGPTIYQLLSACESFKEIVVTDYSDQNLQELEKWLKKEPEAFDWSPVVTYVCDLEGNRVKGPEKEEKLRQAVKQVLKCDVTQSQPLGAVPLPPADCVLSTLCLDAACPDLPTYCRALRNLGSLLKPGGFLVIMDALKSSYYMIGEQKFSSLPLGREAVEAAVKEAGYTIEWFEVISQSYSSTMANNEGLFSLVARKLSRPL
Experimental: NNMT biochemical activity for was evaluated using the Promega Mtase-Glo Methyltransferase Assay kit. Assays were performed in a white, flat-bottomed 96 well plate. […] Reactions were performed for 20 minutes at room temperature. MTase-Glo reagent and MTase-Glo detection solution were added according to manufacturer's instructions and luminescence signal measured with a SpectraMax i3 plate reader and data analyzed with GraphPad Prism version 8. FIG. 14 depicts a visual summary of the Promega MTase-Glo Methyltransferase assay used to assess biochemical activity of novel inhibitors.

NNMT in K562 cells = molecular target: T2, NNMT in K562 cells (Homo sapiens, UniProt P40261); test: Cellular inhibition of NNMT in K562 cells by 1-MNA quantification; format: cell-based
T2 construct: In K562 cells, which express NNMT; host or cells: K562
T2 sequence (P40261 1-264): T1 sequence (P40261 1-264)
Experimental: Cellular activity was measured in K562 (ATCC) cells via measuring (1-methyl nicotinamide) 1-MNA levels after compound incubation at varying concentrations overnight. […] Cells were collected by pipetting and extracted with 200 ul acetonitrile containing internal deuterated standard 10 ng/ml d4-1-MNA. […] The mobile phase A was 2.5 mM ammonium formate in water, and mobile phase B was methanol with 0.1% formic acid, delivered at 0.25 mL/min. The capillary voltage was set to 2400V and the nozzle at 300V. The drying gas temperature was 240° C., the drying gas flow rate was 4 L/min, and the nebulizer pressure was 40 psi. The mass spectrometer was run in multiple reaction monitoring mode.
(§1) All cells were cultured at 37° C. in a humidified incubator buffered with 5% CO2. K562 cells were maintained in RPMI supplemented with 10% fetal bovine serum (FBS). Ovarian CAFs were maintained in MSC-Gro Vitroplus III for proliferation and in DMEM containing 10 μM methionine with 10% dialyzed FBS for experiments. K562 were purchased from ATCC. Ovarian CAFs were purchased from Neuromics.

NNMT in ovarian CAFs = molecular target: T3, NNMT in ovarian CAFs (Homo sapiens, UniProt P40261); test: 1-MNA quantification in ovarian cancer associated fibroblasts; format: cell-based; conditions: 1 μM, six day continuous treatment
T3 construct: host or cells: ovarian cancer-associated fibroblasts
T3 sequence (P40261 1-264): T1 sequence (P40261 1-264)
Experimental: as §1
1-MNA quantification in ovarian CAFs (Neuromics) was performed similarly as in K562 cells, except cells were scraped off the plate in PBS buffer after a six day continuous treatment with compound and then extracted.

[1] = system: Ovarian Cancer Associated Fibroblasts (CAF) markers; test: CAF markers in ovarian CAFs (gel electrophoresis); format: cell-based, human; conditions: incubation with compound, FIG. 5
Experimental: as §1

[2] = Microsomal stability, human microsomes with NADPH (Phase I); format: in vitro ADME; conditions: human liver microsomes; for CLhep predicted at 2 μM: read-out: Predicted hepatic Clint; for CLint scaled at 2 μM: read-out: Scaled-up CLint
Experimental: (§2) The metabolism of Compounds 4 and 13 was evaluated using a microsomal stability assay. Briefly, a master solution was prepared according to Tables 5 and 6.
(§3) The final concentrations of NADPH was 1 mM. […] Samples with NADPH were prepared in duplicate. Negative controls were prepared in singlet.
(§4) Verapamil was used as positive control in this study. The final concentration of test compound or control compound was 2 μM.
(§5) Aliquots of 50 μL were taken from the reaction solution at 0, 15, 30, 45 and 60 minutes.

[3] = Microsomal stability, mouse microsomes with NADPH (Phase I); format: in vitro ADME; conditions: mouse liver microsomes; for CLhep predicted at 2 μM: read-out: Predicted hepatic Clint; for CLint scaled at 2 μM: read-out: Scaled-up CLint
Experimental: as §2, §3, §4, §5

[4] = Microsomal stability, human microsomes with NADPH and UDPGA (Phase II); format: in vitro ADME; conditions: human liver microsomes, NADPH & UDPGA
Experimental: as §2
(§6) For the assay with NADPH and UDPGA (Phase II), 40 μL of 10 mM NADPH solution and 40 μL of 20 mM UDPGA solution were added to each well. The final concentrations of NADPH and UDPGA were 1 mM and 2 mM. […] The negative control samples were prepared by replacing cofactors (NADPH and UDPGA) solution with 80 μL of ultra-pure H2O. Samples with cofactors were prepared in duplicate. Negative controls were prepared in singlet.
(§7) The reaction was started with the addition of 2 μL of 400 μM control compound or test compound solutions. Diclofenac was used as positive control in this study. The final concentration of test compound or control compound was 2 μM.
as §5

[5] = Microsomal stability, mouse microsomes with NADPH and UDPGA (Phase II); format: in vitro ADME; conditions: mouse liver microsomes, NADPH & UDPGA
Experimental: as §2, §6, §7, §5

[6] = system: 1-Methylnicotinamide (1-MNA); test: In vivo pharmacodynamics, plasma 1-MNA in female C57B16/N mice after inhibitor dosing; set-up: species or system mouse
Experimental: 1-Methylnicotinamide (1-MNA) concentrations were also determined.
Then the samples were vortexed for 30 s.

[7] = In vivo pharmacokinetics, plasma concentration of inhibitor in female C57B16/N mice
Excerpt: Doses were freshly prepared on the day of dosing.

U2OS = test: Cellular Activity IC50 (U2OS); format: cell-based; conditions: Homo sapiens
3T3L-1 = test: Cellular Activity IC50 (3T3L-1); format: cell-based; conditions: Mus musculus, 3T3-L1
[8] = K562, read-out: Cellular Activity IC50 (K562)
[9] = read-out: Predicted hepatic Clint
[10] = plasma 1-MNA after inhibitor IV 1 mg/kg
[11] = plasma 1-MNA after inhibitor PO 10 mg/kg
[12] = plasma 1-MNA after inhibitor PO 50 mg/kg
[13] = IV 1 mg/kg, female C57B16/N mice
[14] = PO 10 mg/kg, female C57B16/N mice, plasma
[15] = PO 50 mg/kg, female C57B16/N mice, plasma
[16] = female, C57B16/N, mouse, plasma, iv, 1 mg/kg
[17] = female, C57B16/N, mouse, plasma, po, 10 mg/kg
[18] = female, C57B16/N, mouse, plasma, po, 50 mg/kg

SMILES: CNc1cc(C)c(C(N)=O)cn1 [Compound 4, 4-methyl-6-(methylamino) nicotinamide]
IC50 (recombinant human NNMT; 40 nM recombinant human NNMT, 8 μM nicotinamide, 20 min, read-out: IC50, in vitro NNMT enzyme inhibition assay): 244 nM | IC50 (recombinant human NNMT; read-out: in vitro hNNMT IC50): 240 nM | IC50 (NNMT in K562 cells; [8]): 16 nM | IC50 (NNMT in K562 cells; K562 cells, 24 h, 1-MNA quantification, read-out: IC50, NNMT inhibition in K562 cells): 15 nM | NNMT inhibition in ovarian CAFs (1-MNA quantification) (NNMT in ovarian CAFs): significantly inhibited NNMT | CAF markers in ovarian CAFs [1]: reduction in CAF markers | microsomal CLint at 2 μM [2]: < 5.42 µL/min/mg | half-life at 2 μM [2]: > 4.26 h | Remaining (%) at 60 min [2]: 94.54% | CLhep predicted at 2 μM [2]: < 5.12 mL/min/kg | CLint scaled at 2 μM [2]: < 6.79 mL/min/kg | microsomal CLint at 2 μM [3]: < 5.42 µL/min/mg | half-life at 2 μM [3]: > 4.26 h | Remaining (%) at 60 min [3]: 85.32% | CLhep predicted at 2 μM [3]: < 18.8 mL/min/kg | CLint scaled at 2 μM [3]: < 23.7 mL/min/kg | microsomal CLint at 2 μM [4]: < 5.42 µL/min/mg | half-life at 2 μM ([4]; 2 μM): > 4.26 h | Remaining (%) at 60 min ([4]; 60 min): 96.85% | CLhep predicted at 2 μM [4, 9]: < 5.12 mL/min/kg | CLint scaled at 2 μM ([4]; read-out: Scaled-up CLint): < 6.79 mL/min/kg | microsomal CLint at 2 μM [5]: < 5.42 µL/min/mg | half-life at 2 μM ([5]; 2 μM): > 4.26 h | Remaining (%) at 60 min ([5]; 60 min): 85.18% | CLhep predicted at 2 μM [5, 9]: < 18.8 mL/min/kg | CLint scaled at 2 μM ([5]; read-out: Scaled-up CLint): < 23.7 mL/min/kg | AUClast of 1-MNA [6, 10]: 792 ng·h/mL | Cmax of 1-MNA [6, 10]: 39.3 ng/mL | Tmax of 1-MNA [6, 10]: 16.7 h | AUClast of 1-MNA [6, 11]: 761 ng·h/mL | Cmax of 1-MNA [6, 11]: 42.4 ng/mL | Tmax of 1-MNA [6, 11]: 18.7 h | AUClast of 1-MNA [6, 12]: 678 ng·h/mL | Cmax of 1-MNA [6, 12]: 48.8 ng/mL | Tmax of 1-MNA [6, 12]: 24.0 h | Cl_obs [7, 13]: 62.8 mL/min/kg | Vss_obs [7, 13]: 0.786 L/kg | AUC_%Extrap_obs ([7]; IV 1 mg/kg, female C57B16/N mice, plasma): 1.63% | F_last ([7]; PO 10 mg/kg, female C57B16/N mice): 101% | AUC_%Extrap_obs [7, 14]: 0.194% | T1/2 [7, 14]: 1.11 h | F_last ([7]; PO 50 mg/kg, female C57B16/N mice): 222% | AUC_%Extrap_obs [7, 15]: 0.319% | AUClast [7, 15]: 30747 ng·h/mL | Cmax [7, 15]: 38900 ng/mL | T1/2 [7, 15]: 1.79 h | AUC(0-inf) [7, 16]: 278 ng·h/mL | AUC(0-t) [7, 16]: 273 ng·h/mL | C0 [7, 16]: 1190 ng/mL | MRT inf [7, 16]: 0.216 h | half-life [7, 16]: 0.174 h | AUC(0-inf) [7, 17]: 2810 ng·h/mL | AUC(0-t) [7, 17]: 2800 ng·h/mL | Cmax [7, 17]: 4000 ng/mL | MRT inf [7, 17]: 0.635 h | AUC(0-inf) [7, 18]: 30800 ng·h/mL | MRT inf [7, 18]: 0.695 h

IC50 (recombinant human NNMT; read-out: in vitro hNNMT IC50): 673 nM | IC50 (NNMT in K562 cells; [8]): 106 nM | microsomal CLint at 2 μM [2]: < 5.42 µL/min/mg | half-life at 2 μM [2]: > 4.26 h | Remaining (%) at 60 min [2]: 110.09% | CLhep predicted at 2 μM [2]: < 5.12 mL/min/kg | CLint scaled at 2 μM [2]: < 6.79 mL/min/kg | microsomal CLint at 2 μM [3]: < 5.42 µL/min/mg | half-life at 2 μM [3]: > 4.26 h | Remaining (%) at 60 min [3]: 85.85% | CLhep predicted at 2 μM [3]: < 18.8 mL/min/kg | CLint scaled at 2 μM [3]: < 23.7 mL/min/kg
SMILES: CNc1cc(Cl)c(C(N)=O)cn1 [Compound 13]

SMILES: COc1ccc(C(N)=O)cn1 [JBSNF-000088]
IC50 (recombinant human NNMT; read-out: in vitro hNNMT IC50): 2400 nM | IC50 (U2OS): 1600 nM | IC50 (3T3L-1): 6300 nM

IC50 (U2OS): 300 nM | microsomal CLint at 2 μM [2]: ~6.84 µL/min/mg | half-life at 2 μM [2]: ~3.38 h | Remaining (%) at 60 min [2]: 81.72% | CLhep predicted at 2 μM [2]: ~6.06 mL/min/kg | CLint scaled at 2 μM [2]: ~8.57 mL/min/kg | microsomal CLint at 2 μM [3]: ~4.94 µL/min/mg | half-life at 2 μM [3]: ~4.67 h | Remaining (%) at 60 min [3]: 84.73% | CLhep predicted at 2 μM [3]: ~17.4 mL/min/kg | CLint scaled at 2 μM [3]: ~21.6 mL/min/kg | AUC_%Extrap_obs [7, 15]: 0.0313% | AUC(0-inf) [7, 18]: 15500 ng·h/mL | AUC(0-t) [7, 18]: 15400 ng·h/mL | Cmax [7, 18]: 20900 ng/mL | MRT inf [7, 18]: 0.57 h | Tmax [7, 18]: 0.333 h | half-life [7, 18]: 1.06 h
SMILES: CNc1ccc(C(N)=O)cn1 [JBSNF-000265, reference compound]
IC50 (3T3L-1): 2100 nM | AUClast of 1-MNA [6, 12]: 799 ng·h/mL | Cmax of 1-MNA [6, 12]: 39.3 ng/mL | Tmax of 1-MNA [6, 12]: 6.7 h

SMILES: CNc1cc(C)c(C(N)=O)cn1 [JBSNF-000581, reference compound]
IC50 (recombinant human NNMT; read-out: in vitro hNNMT IC50): 840 nM
